Reference: PubChem BioAssay AID248 (DTP/NCI, 2004)
Several values for one entry are separate records, joined by “and”; a condition that tells them apart may be missing. Identical values can stand only once. Toxic doses and inconclusive results are not listed. No stated cut-off is given here; in the data, active means T/C of 150% or more; inactive means T/C below 125%.

Test system: L1210 leukemia ip in BDF1 mice, survival T/C
Experiment: NCI In Vivo Anticancer Drug Screen. Data for tumor model L1210 Leukemia (intraperitoneal) in B6D2F1 (BDF1) mice
Settings: endpoint: mean survival time, higher = longer survival
Outline: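 Ratio derived from survival: compound-dosed mice over vehicle-dosed mice, all bearing a transplantable tumor.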

[1] = dose: 100.0 mg/kg/injection, schedule: Q01DX009 (ip), vehicle: saline
[2] = dose: 200.0 mg/kg/injection, schedule: Q01DX009 (ip), vehicle: saline
[3] = dose: 100.0 mg/kg/injection, schedule: Q01DX009 (ip), vehicle: Klucel (hydroxypropylcellulose) (HPC)
[4] = dose: 100.0 mg/kg/injection, schedule: Q04DX003 (ip), vehicle: Klucel (hydroxypropylcellulose) (HPC)
[5] = dose: 200.0 mg/kg/injection, schedule: Q01DX009 (ip), vehicle: Klucel (hydroxypropylcellulose) (HPC)
[6] = dose: 200.0 mg/kg/injection, schedule: Q04DX003 (ip), vehicle: Klucel (hydroxypropylcellulose) (HPC)
[7] = dose: 400.0 mg/kg/injection, schedule: Q01DX009 (ip), vehicle: Klucel (hydroxypropylcellulose) (HPC)
[8] = dose: 400.0 mg/kg/injection, schedule: Q04DX003 (ip), vehicle: Klucel (hydroxypropylcellulose) (HPC)
[9] = dose: 50.0 mg/kg/injection, schedule: Q01DX009 (ip), vehicle: saline with Tween-80
[10] = dose: 100.0 mg/kg/injection, schedule: Q01DX001 (ip), vehicle: Klucel (hydroxypropylcellulose) (HPC)
[11] = dose: 100.0 mg/kg/injection, schedule: Q01DX009 (ip), vehicle: saline with Tween-80
[12] = dose: 200.0 mg/kg/injection, schedule: Q01DX001 (ip), vehicle: Klucel (hydroxypropylcellulose) (HPC)
[13] = dose: 100.0 mg/kg/injection, schedule: Q01DX001 (ip), vehicle: saline
[14] = dose: 200.0 mg/kg/injection, schedule: Q01DX001 (ip), vehicle: saline
[15] = dose: 400.0 mg/kg/injection, schedule: Q01DX001 (ip), vehicle: saline

Measured: T/C

O=c1cccc[nH]1
inactive: dose: 25.0 mg/kg/injection, schedule: Q01DX009 (ip), vehicle: saline 100 % of control | dose: 45.0 mg/kg/injection, schedule: Q01DX009 (ip), vehicle: saline 91 % of control | dose: 50.0 mg/kg/injection, schedule: Q01DX009 (ip), vehicle: saline 106 % of control and 93 % of control | dose: 65.0 mg/kg/injection, schedule: Q01DX009 (ip), vehicle: saline 104 % of control | [1] 96 % of control and 110 % of control and 91 % of control | dose: 100.0 mg/kg/injection, schedule: Q04DX002 (ip), vehicle: saline 95 % of control | dose: 100.0 mg/kg/injection, schedule: Q04DX003 (ip), vehicle: saline 91 % of control | dose: 150.0 mg/kg/injection, schedule: Q01DX009 (ip), vehicle: saline 102 % of control | [2] 109 % of control and 110 % of control | dose: 200.0 mg/kg/injection, schedule: Q04DX002 (ip), vehicle: saline 100 % of control | dose: 200.0 mg/kg/injection, schedule: Q04DX003 (ip), vehicle: saline 91 % of control | dose: 400.0 mg/kg/injection, schedule: Q04DX003 (ip), vehicle: saline 92 % of control

O=C1c2ccccc2C(=O)C1(Br)C(Br)c1ccccc1 (configuration not stated)
inactive: [3] 102 % of control | [4] 96 % of control | [5] 101 % of control | [6] 94 % of control | [7] 93 % of control | [8] 96 % of control

O=Nc1ccc(-[n+]2ccccc2)c([N+](=O)[O-])c1
inactive: dose: 75.0 mg/kg/injection, schedule: Q01DX001 (ip), vehicle: saline 98 % of control

Oc1ccc(C2CCCCCC2)cc1
inactive: dose: 12.5 mg/kg/injection, schedule: Q01DX001 (ip), vehicle: carboxymethylcellulose (CMC) 97 % of control | dose: 25.0 mg/kg/injection, schedule: Q01DX001 (ip), vehicle: carboxymethylcellulose (CMC) 103 % of control

Nc1ccc(CCCCc2ccc(Cl)cc2Cl)cc1
inactive: dose: 50.0 mg/kg/injection, schedule: Q01DX001 (ip), vehicle: Klucel (hydroxypropylcellulose) (HPC) 100 % of control | [9] 96 % of control | [10] 94 % of control | [11] 102 % of control | [12] 109 % of control

Nc1ncnc2c(-c3ccccc3)c[nH]c12
inactive: [10] 102 % of control | [4] 100 % of control | [12] 97 % of control | [6] 100 % of control | dose: 400.0 mg/kg/injection, schedule: Q01DX001 (ip), vehicle: Klucel (hydroxypropylcellulose) (HPC) 91 % of control | [8] 104 % of control

CC(=O)CC(=O)Nc1nc(C)cs1
inactive: dose: 75.0 mg/kg/injection, schedule: Q01DX001 (ip), vehicle: Klucel (hydroxypropylcellulose) (HPC) 100 % of control | dose: 150.0 mg/kg/injection, schedule: Q01DX001 (ip), vehicle: Klucel (hydroxypropylcellulose) (HPC) 100 % of control | dose: 300.0 mg/kg/injection, schedule: Q01DX001 (ip), vehicle: Klucel (hydroxypropylcellulose) (HPC) 95 % of control

CCOc1c(Br)cc(Br)cc1C=C(C#N)C#N
inactive: dose: 25.0 mg/kg/injection, schedule: Q01DX009 (ip), vehicle: other 102 % of control | dose: 50.0 mg/kg/injection, schedule: Q01DX009 (ip), vehicle: other 98 % of control | dose: 100.0 mg/kg/injection, schedule: Q04DX003 (ip), vehicle: other 102 % of control | dose: 200.0 mg/kg/injection, schedule: Q04DX003 (ip), vehicle: other 108 % of control

CC(=O)c1cccc(NC(=O)c2c(Br)c(Br)c(Br)c(Br)c2C(=O)O)c1
inactive: [3] 97 % of control | [5] 104 % of control | [7] 109 % of control

Cc1cc(-c2ccc([N+](=O)[O-])cc2)cn1-c1ccccc1
inactive: dose: 50.0 mg/kg/injection, schedule: Q04DX002 (ip), vehicle: saline with Tween-80 97 % of control | dose: 100.0 mg/kg/injection, schedule: Q04DX002 (ip), vehicle: saline with Tween-80 97 % of control and 89 % of control | dose: 200.0 mg/kg/injection, schedule: Q04DX002 (ip), vehicle: saline with Tween-80 87 % of control | dose: 400.0 mg/kg/injection, schedule: Q04DX002 (ip), vehicle: saline with Tween-80 96 % of control

COc1cc(CC#N)cc(OC)c1
inactive: [9] 102 % of control | [11] 88 % of control

c1ccc([B-](c2ccccc2)(c2ccccc2)[C+]2CCCCC2)cc1 (tested in a mixture with another compound)
inactive: [13] 105 % of control | [14] 108 % of control | [15] 108 % of control

C=CCSc1nc(N)nc2c1ncn2C1CC(O)C(CO)O1 (configuration not stated)
inactive: dose: 100.0 mg/kg/injection, schedule: Q01DX005 (ip), vehicle: saline 102 % of control | [1] 102 % of control | dose: 200.0 mg/kg/injection, schedule: Q01DX005 (ip), vehicle: saline 104 % of control | [2] 109 % of control | dose: 400.0 mg/kg/injection, schedule: Q01DX009 (ip), vehicle: saline 109 % of control

Cc1cc(N=Cc2ccc(Cl)cc2)c(N=Cc2ccc(Cl)cc2)cc1C
inactive: dose: 100.0 mg/kg/injection, schedule: Q01DX005 (ip), vehicle: Klucel (hydroxypropylcellulose) (HPC) 99 % of control | [3] 108 % of control | dose: 100.0 mg/kg/injection, schedule: Q04DX002 (ip), vehicle: Klucel (hydroxypropylcellulose) (HPC) 95 % of control | dose: 200.0 mg/kg/injection, schedule: Q01DX005 (ip), vehicle: Klucel (hydroxypropylcellulose) (HPC) 96 % of control | [5] 115 % of control | dose: 200.0 mg/kg/injection, schedule: Q04DX002 (ip), vehicle: Klucel (hydroxypropylcellulose) (HPC) 95 % of control | dose: 400.0 mg/kg/injection, schedule: Q01DX005 (ip), vehicle: Klucel (hydroxypropylcellulose) (HPC) 92 % of control | [7] 97 % of control | dose: 400.0 mg/kg/injection, schedule: Q04DX002 (ip), vehicle: Klucel (hydroxypropylcellulose) (HPC) 95 % of control

O=S(=O)(c1ccccc1)C(Br)Br
inactive: dose: 50.0 mg/kg/injection, schedule: Q04DX003 (ip), vehicle: saline with Tween-80 101 % of control | dose: 100.0 mg/kg/injection, schedule: Q04DX003 (ip), vehicle: saline with Tween-80 103 % of control | dose: 200.0 mg/kg/injection, schedule: Q04DX003 (ip), vehicle: saline with Tween-80 101 % of control

CC(C#N)(CCC(=O)O)N=NC(C)(C#N)CCC(=O)O (configuration not stated)
inactive: [13] 102 % of control | [14] 103 % of control | [15] 108 % of control

Oc1ccccc1C=Nc1ccccc1O
inactive: dose: 33.0 mg/kg/injection, schedule: Q04DX002 (ip), vehicle: gum acacia 103 % of control | dose: 50.0 mg/kg/injection, schedule: Q04DX002 (ip), vehicle: gum acacia 100 % of control | dose: 75.0 mg/kg/injection, schedule: Q04DX002 (ip), vehicle: gum acacia 100 % of control | dose: 100.0 mg/kg/injection, schedule: Q01DX009 (ip), vehicle: gum acacia 89 % of control | dose: 100.0 mg/kg/injection, schedule: Q04DX002 (ip), vehicle: gum acacia 104 % of control | dose: 200.0 mg/kg/injection, schedule: Q01DX009 (ip), vehicle: gum acacia 105 % of control | dose: 200.0 mg/kg/injection, schedule: Q04DX002 (ip), vehicle: gum acacia 107 % of control | dose: 400.0 mg/kg/injection, schedule: Q01DX009 (ip), vehicle: gum acacia 89 % of control

CCOC(=N)c1cc([N+](=O)[O-])cc([N+](=O)[O-])c1
inactive: [13] 102 % of control | [14] 104 % of control | [15] 102 % of control
